The values that follow come from patent US20110301200A1, “THYROID RECEPTOR LIGANDS” (CADILA HEALTHCARE LIMITED, priority 2008, published 2011).

One data set concerns cholesterol-fed rats. Kind of data set: Cholesterol lowering and change in heart rate in cholesterol-fed rats. It is filed as in vivo, rat. The note with it: treated for 7 days. Here is the method: Cholesterol lowering effect of T3 and selected compounds disclosed in the present invention on cholesterol lowering and change in heart rate in cholesterol-fed rats (treated for 7 days) was determined according to the general protocol described in PNAS, vol. […] Therefore, these compounds have the potential to be further developed as selective TR-beta agonists for the treatment of human & other animals in need of such treatment.

For a further data set, the target named is T1, TR-β (Homo sapiens, UniProt P10828).
T1 sequence (P10828 1-461): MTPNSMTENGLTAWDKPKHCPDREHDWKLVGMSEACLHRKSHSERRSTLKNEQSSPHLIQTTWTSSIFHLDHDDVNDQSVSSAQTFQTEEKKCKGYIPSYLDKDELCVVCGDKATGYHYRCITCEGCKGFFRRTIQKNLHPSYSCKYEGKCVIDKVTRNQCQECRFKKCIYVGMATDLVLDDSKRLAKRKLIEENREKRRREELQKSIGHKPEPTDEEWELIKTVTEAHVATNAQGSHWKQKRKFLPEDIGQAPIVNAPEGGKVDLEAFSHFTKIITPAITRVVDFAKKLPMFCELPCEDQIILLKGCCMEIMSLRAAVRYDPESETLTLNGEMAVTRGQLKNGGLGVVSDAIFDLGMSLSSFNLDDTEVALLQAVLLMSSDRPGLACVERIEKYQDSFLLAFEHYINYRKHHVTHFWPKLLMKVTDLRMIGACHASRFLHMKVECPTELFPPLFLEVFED
Kind of data set: In vitro TR-β activity (in-house protocol). It counts as cell-based. Here is the method: (§1) In vitro TR-α & TR-β activities were determined as per in-house protocols and the results of representative compounds are provided in tables 1 & 2 below as a proof of the efficacies of the novel class of compounds disclosed above.

Another data set addresses T2, TR-α (Homo sapiens, UniProt P10827).
T2 sequence (P10827 1-410 isoform P10827-2): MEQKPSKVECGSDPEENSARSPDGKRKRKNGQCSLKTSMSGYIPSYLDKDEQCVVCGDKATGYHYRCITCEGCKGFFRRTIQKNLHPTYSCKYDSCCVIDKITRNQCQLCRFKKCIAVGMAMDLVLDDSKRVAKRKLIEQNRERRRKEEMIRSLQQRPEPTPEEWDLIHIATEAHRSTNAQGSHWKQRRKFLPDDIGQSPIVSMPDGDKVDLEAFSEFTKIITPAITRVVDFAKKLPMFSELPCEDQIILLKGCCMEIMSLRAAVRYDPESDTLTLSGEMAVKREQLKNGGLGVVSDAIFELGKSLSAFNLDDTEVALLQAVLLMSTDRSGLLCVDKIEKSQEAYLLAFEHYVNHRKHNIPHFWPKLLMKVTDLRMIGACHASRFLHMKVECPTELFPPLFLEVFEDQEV
Nature of the data set: In vitro TR-α activity (in-house protocol). It is filed as cell-based. Here is the method:
as §1

In the case of `CCC(C)c1cc(Oc2c(Br)cc(C=NOC(C)C(=O)O)cc2Br)ccc1O` (centres unmarked) [Example 14, 2-(((3,5-dibromo-4-(3-(sec-butyl)-4-hydroxyphenoxy)benzylidene)amino)oxy)propanoic acid], in the data set with cholesterol-fed rats (oral 0.1 mg/kg), the “% Change in Heart Rate” value is listed as −2% and the “% Change in Total Cholesterol” value is −44%. At TR-β, the midpoint of the response, the EC50, lay at 0.99 nM. On TR-α, this compound returned a 50% effective concentration (EC50) of 5.12 nM.

Take `CC(C)c1cc(Oc2c(Br)cc(C=NOCC(=O)O)cc2Br)ccc1O` [Example 3, 2-(((3,5-dibromo-4-(4-hydroxy-3-isopropylphenoxy)benzylidene)amino)oxy)acetic acid]: the “% Change in Heart Rate” value in the data set with cholesterol-fed rats (oral 0.5 mg/kg) is on record as 4.2%. Besides, the “% Change in Total Cholesterol” value in the data set on cholesterol-fed rats (oral 0.5 mg/kg) is given as −68%. Moreover, the fold induction at 0.001 µM came out at 17.7 on TR-β (Conc. 1 nM, read-out: TR-β Fold Induction w.r.t T3(100 nm)) and 18.3 on TR-α (Conc. 1 nM, read-out: TR-α Fold Induction w.r.t T3(100 nm)). Also, the fold induction at 0.01 µM on TR-β (Conc. 10 nM, read-out: TR-β Fold Induction w.r.t T3(100 nm)) came out at 49.5; on TR-α (Conc. 10 nM, read-out: TR-α Fold Induction w.r.t T3(100 nm)), 38.5. In addition, the fold induction at 0.1 µM stood at 92.1 on TR-β (Conc. 100 nM, read-out: TR-β Fold Induction w.r.t T3(100 nm)) and 93.8 on TR-α (Conc. 100 nM, read-out: TR-α Fold Induction w.r.t T3(100 nm)). Further, the fold induction at 1 µM on TR-β (Conc. 1000 nM, read-out: TR-β Fold Induction w.r.t T3(100 nm)) turned out to be 138; on TR-α (Conc. 1000 nM, read-out: TR-α Fold Induction w.r.t T3(100 nm)), 133.

With `CC(ON=Cc1cc(Br)c(Oc2ccc(O)c(C(C)C)c2)c(Br)c1)C(=O)O` (centres unmarked) [Example 10, 2-(((3,5-dibromo-4-(4-hydroxy-3-isopropylphenoxy)benzylidene)amino)oxy)propanoic acid], in the data set with cholesterol-fed rats (oral 0.2 mg/kg), the “% Change in Heart Rate” value was determined as 9.5% and the “% Change in Total Cholesterol” value is on record as −45%. This compound yielded a 50% effective concentration (EC50) on TR-β of 3.25 nM. The same compound returned a half-maximal effective concentration (EC50) on TR-α of 25 nM.

Take `N[C@@H](Cc1cc(I)c(Oc2ccc(O)c(I)c2)c(I)c1)C(=O)O` [Example T3, reference compound]: in the data set with cholesterol-fed rats (oral 13 μg/kg), the “% Change in Heart Rate” value worked out at 14% and the “% Change in Total Cholesterol” value is −46%.

As usually defined, the EC50 is the concentration that produces a half-maximal response. A high value points to a less potent agent.
